# Laboratory results published in patent US20110039787A1, “COMPOSITIONS, KITS AND METHODS FOR TREATING BENIGN PROSTATE HYPERPLASIA” (priority 2009, published 2011).
# Square brackets hold non-standard residues; d marks the D form. Peptide text beside a SMILES is read from it. * marks the point of attachment. dPhe(4-NHCONH2) = NC(=O)Nc1ccc(C[C@@H](N)C(=O)O)cc1; Dihydroorotyl(S) = O=C1C[C@@H](C(=O)*)NC(=O)N1; dPhe(4-Cl) = N[C@H](Cc1ccc(Cl)cc1)C(=O)O; Phe(4-NH2) = Nc1ccc(C[C@H](N)C(=O)O)cc1; d2Nal = N[C@H](Cc1ccc2ccccc2c1)C(=O)O; Lys(iPr) = CC(C)NCCCC[C@H](N)C(=O)O; d3Pal = N[C@H](Cc1cccnc1)C(=O)O
# Legend:
# [1] = system: men with BPH; test: IPSS questionnaire (sum of scores), clinical trial in BPH patients; type: in vivo
# Protocol: (§1) For each patient, the following parameters were measured or assessed (using the methods discussed below), at time points of screening day 0 (e.g., −7 days, “baseline”), day 14, day 28, and day 42:
# (§2) After the initial 6-week treatment period of the exploratory study had been completed, a 12-month follow-up period looking at long-term efficacy commenced. Interim data of the main efficacy variables (IPSS, IPSS Global QoL, prostate volume, urinary flow, and post-void residual volume—measured as set out below) after 6 months' follow-up are also presented herein at Tables 1, 2, 3, and FIG. 1b. FIG. 1b also includes IPSS data at 9 and 12 months.
# The IPSS was developed in 1991 by the American Urological Association to assess the severity of urinary symptoms related to BPH (Barry, M. J., et al., The American Urological Association symptom index for benign prostatic hyperplasia. The Measurement Committee of the American Urological Association. J Urol, 1992. 148(5): p. 1549-57; discussion 1564). The IPSS has been widely used in clinical studies, has undergone extensive validation, and its psychometric properties are well documented in both the original version (containing a 1-month recall) as well as the ‘acute’ version used in this study (containing a one-week recall). The WHO recommended the use of this instrument for the evaluation of BPH, and it is considered to be the internationally accepted, standard questionnaire for assessing lower urinary tract symptoms.
# The patients completed the IPSS questionnaire to evaluate their urinary symptoms. The IPSS is a patient-administered questionnaire containing seven items to evaluate symptoms of urinary obstruction (i.e., incomplete emptying, frequency, hesitancy, urgency, weak stream, straining, nocturia) over the preceding week. Each urinary symptom question is assigned points from 0 to 5 indicating increasing severity of the particular symptom. The total score can therefore range from 0 to 35 (0-7: mildly symptomatic; 8-19: moderately symptomatic; 20-35: severely symptomatic). A reduction in total score over the treatment period is indicative of prostate symptom improvement.
# [2] = system: men with BPH; test: IPSS global QoL question, clinical trial in BPH patients; type: in vivo
# Protocol: as §1, §2
# Included in the IPSS is one item to evaluate QoL (i.e., IPSS-global QoL). The Global QoL Question was developed alongside the IPSS and was officially included as part of the IPSS in 1993 when the WHO formally recommended the IPSS for both symptom and QoL assessment. […] This question assesses the degree to which patients find their symptoms bothersome. Patients are asked about how they would feel if they were to spend the rest of their lives with their prostate symptoms just as they are now. The choices for answering this quality of life question range from “delighted” (rating=0) to “terrible” (rating=6).
# [3] = 16+16 mg, Month 6 follow up, n=6
# [4] = 32+32 mg, Month 6 follow up, n=7
# [5] = all treatment groups (50 patients), Day 42
smiles,measurement,setting,value
"CC(=O)N[C@H](Cc1ccc2ccccc2c1)C(=O)N[C@H](Cc1ccc(Cl)cc1)C(=O)N[C@H](Cc1cccnc1)C(=O)N[C@@H](CO)C(=O)N[C@@H](Cc1ccc(NC(=O)[C@@H]2CC(=O)NC(=O)N2)cc1)C(=O)N[C@H](Cc1ccc(NC(N)=O)cc1)C(=O)N[C@@H](CC(C)C)C(=O)N[C@@H](CCCCNC(C)C)C(=O)N1CCC[C@H]1C(=O)N[C@H](C)C(N)=O [Degarelix, D-Alaninamide, N-acetyl-3-(2-naphthalenyl)-D-alanyl-4-chloro-D-phenylalanyl-3-(3-pyridinyl)-D-alanyl-L-seryl-4-[[[(4S)-hexahydro-2,6-dioxo-4-pyrimidinyl]carbonyl]amino]-L-phenylalanyl-4-[(aminocarbonyl)amino]-D-phenylalanyl-L leucyl-N6-(1-methylethyl)-L-lysyl-L-prolyl] (Ac-[d2Nal][dPhe(4-Cl)][d3Pal]S[Phe(4-NH2)](Dihydroorotyl(S))[dPhe(4-NHCONH2)]L[Lys(iPr)]P[dA]-NH2)",Improvements in mean sum of IPSS scores,"[1]; 32 mg and 32+32 mg groups, 9 and 12 months (FIG. 1b)",still indicated
same,"Mean change from baseline in IPSS score, mean (SD)","[1]; 32 mg s.c. (Day 0), Day 14, N=12",−7.8 (8.7)
same,Percentage responders (decrease in IPSS of at least 30% as compared to baseline),"[1]; 32 mg, Day 42",92%
same,"Mean IPSS score, mean (SD)","[1]; 32 mg, Day 42, N=12",9.1 (6.2)
same,"Mean change from baseline in IPSS score, mean (SD)","[1]; 32 mg, Day 42, N=12",−13.2 (6.6)
same,"Mean change from baseline in IPSS score, mean (SD)","[1]; 32 mg, Day 42, N=12, listed as degarelix",−13.2
same,"Mean IPSS score, mean (SD)","[1]; 32 mg, Month 6 follow up, n=7",10.4 (6.3)
same,"Mean change from baseline in IPSS score, mean (SD)","[1]; 32 mg, Month 6 follow up, n=7",−11.6 (8.3)
same,Percentage responders (decrease in IPSS of at least 30% as compared to baseline),"[1]; 32 mg, Month 6 follow up, n=7",86%
same,"Mean change from baseline in IPSS score, mean (SD)","[1]; 64 mg s.c. (Day 0), Day 14, N=13",−8.0 (4.0)
same,Percentage responders (decrease in IPSS of at least 30% as compared to baseline),"[1]; 64 mg, Day 42",85%
same,"Mean IPSS score, mean (SD)","[1]; 64 mg, Day 42, N=13",11.8 (5.9)
same,"Mean change from baseline in IPSS score, mean (SD)","[1]; 64 mg, Day 42, N=13",−10.0 (5.0)
same,"Mean change from baseline in IPSS score, mean (SD)","[1]; 64 mg, Day 42, N=13, listed as degarelix",−10.0
same,"Mean IPSS score, mean (SD)","[1]; 64 mg, Month 6 follow up, n=4",16.0 (8.7)
same,"Mean change from baseline in IPSS score, mean (SD)","[1]; 64 mg, Month 6 follow up, n=4",−4.0 (3.6)
same,"Mean change from baseline in IPSS score, mean (SD)","[1]; 16+16 mg s.c. (Day 0 + Day 14), Day 14, N=13",−3.2 (5.4)
same,Percentage responders (decrease in IPSS of at least 30% as compared to baseline),"[1]; 16+16 mg, Day 42",54%
same,"Mean IPSS score, mean (SD)","[1]; 16+16 mg, Day 42, N=13",11.6 (4.5)
same,"Mean change from baseline in IPSS score, mean (SD)","[1]; 16+16 mg, Day 42, N=13",−6.1 (4.6)
same,"Mean change from baseline in IPSS score, mean (SD)","[1]; 16+16 mg, Day 42, N=13, listed as degarelix",−6.1
same,"Mean IPSS score, mean (SD)",[1]; [3],16.3 (4.7)
same,"Mean change from baseline in IPSS score, mean (SD)",[1]; [3],−2.5 (4.3)
same,Percentage responders (decrease in IPSS of at least 30% as compared to baseline),[1]; [3],33%
same,"Mean change from baseline in IPSS score, mean (SD)","[1]; 32+32 mg s.c. (Day 0 + Day 14), Day 14, N=12",−5.5 (5.0)
same,Percentage responders (decrease in IPSS of at least 30% as compared to baseline),"[1]; 32+32 mg, Day 42",83%
same,"Mean IPSS score, mean (SD)","[1]; 32+32 mg, Day 42, N=12",8.6 (5.7)
same,"Mean change from baseline in IPSS score, mean (SD)","[1]; 32+32 mg, Day 42, N=12",−9.6 (4.7)
same,"Mean change from baseline in IPSS score, mean (SD)","[1]; 32+32 mg, Day 42, N=12, listed as degarelix",−9.6
same,"Mean IPSS score, mean (SD)",[1]; [4],6.7 (4.5)
same,"Mean change from baseline in IPSS score, mean (SD)",[1]; [4],−12.6 (9.6)
same,Percentage responders (decrease in IPSS of at least 30% as compared to baseline),[1]; [4],86%
same,"Number of patients categorised as ""mild"" (IPSS 0-7)",[1]; [5],17 patients
same,"Number of patients categorised as ""moderate"" (IPSS 8-19)",[1]; [5],31 patients
same,"Number of patients categorised as ""severe"" (IPSS 20-35)",[1]; [5],2 patients
same,"Mean IPSS global QoL score, mean (SD)","[2]; 32 mg, Day 42, N=12",1.8 (2.0)
same,"Mean change from baseline in IPSS global QoL score, mean (SD)","[2]; 32 mg, Day 42, N=12",−2.1 (3.0)
same,"Change from baseline in IPSS global QoL score, mean (SD)","[2]; 32 mg, Month 6 follow-up, n=7",−1.4 (1.1)
same,"Mean IPSS global QoL score, mean (SD)","[2]; 32 mg, Month 6 follow-up, n=7",1.4 (1.5)
same,"Mean IPSS global QoL score, mean (SD)","[2]; 64 mg, Day 42, N=13",2.5 (1.3)
same,"Mean change from baseline in IPSS global QoL score, mean (SD)","[2]; 64 mg, Day 42, N=13",−2.2 (1.6)
same,"Change from baseline in IPSS global QoL score, mean (SD)","[2]; 64 mg, Month 6 follow-up, n=4",−0.8 (1.7)
